Test results published in patent US20110281762A1, “High throughput screening for anaerobic microorganisms” (priority 2010, published 2011).

What was measured:
[1] = biological target: periplasmic domain of BT1754 (BT1754-PD; residues 29-343) (Bacteroides thetaiotaomicron, UniProt Q8A6X1); assay: Isothermal calorimetry binding to the periplasmic domain of BT1754
Excerpt: The periplasmic domain of the hybrid two-component system BT1754 binds to monomeric fructose. One of the key unanswered questions concerning the HTCS family, and many extracellular sensory systems, is the identity of the molecular triggers for signaling events. […] (FIG. 2B). […] As PBPs are known to bind small molecules such as sugars, we expressed the periplasmic domain of BT1754 (BT1754-PD; residues 29-343) in a recombinant form and tested for binding to a range of monosaccharides and fructan-derived oligosaccharides to see if direct interaction with a specific carbohydrate is the means of signal perception in BT1754.
Isothermal titration calorimetry. Measurements were carried out essentially as described previously, except that a Microcal VP-ITC machine was used, and proteins were dialyzed into 20 mM Tris-HCl, pH8.0. The assumption that n=1 for BT1762 binding to levan was based on the structure of the starch binding SusD.

[2] = tested on: Bacteroides thetaiotaomicron (Bt); assay: Growth of Bt in minimal medium with a fructose-based carbohydrate as only carbon source; format: cell-based; details: substance as only carbon and energy source; for doubling time: Bt
Excerpt: Bt upregulates its putative fructan PUL when grown on fructose-containing carbohydrates We inoculated minimal medium containing specific fructose-based carbohydrates as the only carbon and energy source with Bt to test if the bacterium is competent to grow on fructans. Bt grew on a broad range of fructose-based glycans, including free fructose, sucrose, levan (high MW fructose polymer with predominantly β2-6-linkages), and fructo-oligosaccharides (FOS; short-chain β2-1 polymers of 2-10 fructose units) (FIG. 1C). However, Bt grew poorly on inulin (β2-1 fructose polymer with an average degree of polymerization of ˜25), with growth only apparent three days after inoculation. Doubling times on simple monosaccharides and disaccharide were similar to one another.
(§1) Culturing bacteria. Bacteria were cultured in TYG and MM as described previously. The following bacteria were used: Bt (VPI-5482), B. caccae (ATCC-43185), B. ovatus (ATCC-8483), B. fragilis (NCTC-9343), B. uniformis (ATCC-8492), and B. vulgatus (ATCC-8482). Growth curves in MM were obtained using a Powerwave (Biotek) reading OD600 every 30 min from anaerobic cultures at 37° C.

[3] = tested on: Bt-ΔBT1754; assay: Growth of isogenic mutant Bt-ΔBT1754 in minimal media; format: cell-based, Bacteroides thetaiotaomicron; details: fructose-based minimal media
Excerpt: The hybrid two-component system BT1754 is required for efficient fructan utilization by Bt. We assessed the ability of an isogenic mutant of Bt lacking the BT1754 gene to grow in a panel of fructose-based minimal media (MM) to test if upregulation of the PUL was dependent upon the HTCS signaling sensor. An in-frame, unmarked deletion of BT1754 was constructed using a standard counter-selectable allele-exchange procedure. […] Complementation of this mutant was achieved by introducing the genomic fragment containing BT1754 and its 5′ intergenic upstream promoter region in trans.
as §1

[4] = tested on: all six Bacteroides species; assay: Growth of six Bacteroides species on fructose-based glycans; format: cell-based
Excerpt: (§2) In all six Bacteroides species, the HTCS is adjacent to a predicted fructokinase, a putative inner membrane monosaccharide importer, and GH32-family glycoside hydrolases. In each genome, except that of B. vulgatus, the syntenic regions also contain a susC/susD homologous pair. […] All Bacteroides species tested, except B. vulgatus, were able to grow efficiently using one of the long-chain fructans, inulin or levan. The inability of B. vulgatus to grow on long-chain fructans is consistent with the absence of a susC/susD-like pair within its locus. B. caccae, B. ovatus, B. fragilis and B. uniformis can utilize inulin with efficiency similar to their use of glucose. This contrasts with Bt inulin use, which is only observed after three days (FIG. 5). Bt was the only species tested able to use levan, which was particularly striking when considering the overall similarity in PUL structure between Bt, B. caccae, and B. ovatus.
as §1

[5] = tested on: B. caccae; assay: Growth on long-chain fructan; format: cell-based; details: efficiency similar to use of glucose
Excerpt: as §2, §1

[6] = tested on: B. fragilis; assay: Growth on long-chain fructan; format: cell-based; details: efficiency similar to use of glucose
Excerpt: as §2, §1

[7] = tested on: B. ovatus; assay: Growth on long-chain fructan; format: cell-based; details: efficiency similar to use of glucose
Excerpt: as §2, §1

[8] = tested on: B. uniformis; assay: Growth on long-chain fructan; format: cell-based; details: efficiency similar to use of glucose
Excerpt: as §2, §1

[9] = tested on: B. vulgatus; assay: Growth on long-chain fructan; format: cell-based
Excerpt: as §2, with “Bt was the only species tested able to use levan, which was particularly striking when considering the overall similarity in PUL structure between Bt, B. caccae, and B. ovatus.” left out
Genomic content of Bacteroides species predicts changes in microbiota composition induced by an inulin-based diet. The differences in ability to utilize fructans between the Bacteroides species implies that the relative success of a species within a gut ecosystem may be determined, in part, by the abundance and type of fructan in the host diet. […] We constructed defined two-member communities of Bacteroides species within the intestines of gnotobiotic mice to test how model microbiotas respond in vivo to dietary inulin, which, unlike levan, is available in pure form in quantities sufficient to conduct such a study. […]

[10] = tested on: Bt and B. caccae; assay: Dietary inulin in gnotobiotic mice bi-associated with Bt and B. caccae, relative fecal proportion by qPCR; format: in vivo, germ-free Swiss-Webster mice
Excerpt: (§3) Two groups of 8-12-week old, germ-free mice were colonized with equivalent quantities (10^8 colony forming units, CFU) of Bt and B. caccae or Bt and B. vulgatus. Each mouse was maintained on a standard polysaccharide-rich diet for the first 7 days of colonization and then switched to a diet in which the sole polysaccharide was inulin (10% w/w) for an additional 14 days. Mice were individually housed throughout the experiment to ensure no cross inoculation could occur and bedding was changed every two days. Total bacterial colonization density was determined by assessing the CFUs in feces over 21 days. The change in each species' relative abundance before and after dietary inulin supplementation was assessed using species-specific primers in a quantitative PCR assay.
In the previous experiment, inulin was the sole polysaccharide in the diet. We wondered whether we would observe the same inulin-induced increase in B. caccae relative to Bt if other polysaccharides were also present in the diet. To test this, gnotobiotic mice were co-colonized with Bt and B. caccae and maintained on the standard diet with inulin supplementation in the water (1% w/v). Over the 14 days the mice ingested an average of 117±6 mg of inulin daily via the water (compared to 355±7 mg/day with the inulin diet). Fecal samples were tested by qPCR over the course of the 21-day experiment for relative levels of Bt or B. caccae.
We decided to feed mice a custom diet deficient in all polysaccharides and supplement inulin in the water to determine whether a lower dose of inulin in the absence of other polysaccharides was sufficient to provide B. caccae a competitive advantage over Bt in vivo. Under this experimental paradigm the mice consumed an average of 97 mg of inulin per day. After. 14 days on inulin-water supplementation, the proportion of B. caccae increased by 26±8% (FIG. 6D). […] The wide range of polysaccharides present in the standard diet allows Bt to compete effectively with B. caccae even in the presence of inulin.
(§4) Bacterial colonization and density determination of germ-free mice. Germ-free Swiss-Webster mice were maintained in gnotobiotic isolators and fed an autoclaved standard diet (Purina LabDiet 5K67) or custom diet (Bio-Serv, http://bio-serv.com/), in accordance with A-PLAC, the Stanford IACUC. Mice were bi-associated using oral gavage (10^8 CFU of each bacterial species). Relative densities of bacteria were determined by qPCR using strain-specific primers.

[11] = tested on: Bt and B. vulgatus; assay: Dietary inulin in gnotobiotic mice bi-associated with Bt and B. vulgatus, relative fecal proportion by qPCR; format: in vivo, germ-free Swiss-Webster mice
Excerpt: as §3, §4

[12] = after two weeks on inulin diet (day 21), n=7 mice

Chain of periplasmic domain of BT1754 (BT1754-PD; residues 29-343) (Q8A6X1 entry or part of it, change not shown): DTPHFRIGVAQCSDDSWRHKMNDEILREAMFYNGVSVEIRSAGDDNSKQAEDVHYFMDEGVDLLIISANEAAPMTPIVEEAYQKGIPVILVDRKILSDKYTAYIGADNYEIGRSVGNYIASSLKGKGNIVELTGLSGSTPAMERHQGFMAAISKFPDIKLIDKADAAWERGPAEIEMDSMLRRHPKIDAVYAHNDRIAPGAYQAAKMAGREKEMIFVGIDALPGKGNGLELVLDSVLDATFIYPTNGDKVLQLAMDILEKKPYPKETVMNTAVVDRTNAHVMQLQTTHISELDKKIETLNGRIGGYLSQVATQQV

In the case of `O=C(CO)[C@@H](O)[C@H](O)[C@H](O)CO` [fructose], the Kd [1] is reported as ~2000 nM, the “growth of Bt” value [2] is reported as “grew on” and the “growth of Bt-ΔBT1754” value [3] is reported as “retarded growth”. For the same molecule, the growth [4] was “competent for growth”.
With `O=C[C@H](O)[C@H](O)[C@H](O)CO` [ribose] the “interaction with BT1754-PD” value ([1]; isothermal calorimetry) was “does not interact”.
For `OC[C@H]1O[C@@](CO)(O[C@H]2O[C@H](CO)[C@@H](O)[C@H](O)[C@H]2O)[C@@H](O)[C@@H]1O` [sucrose], the “growth of Bt” value [2] was “grew on”, the “growth of Bt-ΔBT1754” value [3] was “retarded growth” and the growth [4] was “competent for growth”.
For fructo-oligosaccharides [FOS], the doubling time [2] was 5.6 h, the “growth of Bt” value [2] was “grew on” and the “growth of Bt-ΔBT1754” value [3] was “failed to grow”. The growth [4] was “competent for growth”.
In the case of inulin, the doubling time [2] is reported as 96.4 h, the “growth of Bt” value [2] is reported as “grew poorly” and the “growth of Bt-ΔBT1754” value [3] is reported as “failed to grow”. The inulin utilization [5] was “can utilize”, the inulin utilization [6] was “can utilize” and the inulin utilization [7] was “can utilize”. The inulin utilization [8] was “can utilize”, the inulin utilization [9] was “unable to utilize” and the “B. caccae proportion of community” value [10, 12] was 51±6%. For the same molecule, the “Bt proportion of community” value [10, 12] was “approximately 49±6%”, the “increase in proportion of B. caccae” value ([10]; custom diet deficient in all polysaccharides, inulin in the water, 14 days) was 26±8% and the “increase in proportion of B. caccae” value ([10]; inulin-only diet experiment, day 6 to day 21) was 36±7%. The “B. caccae proportion of community” value ([10]; six days after change to inulin-based diet (10% w/w)) was 20±4%, the “Bt proportion of community” value ([10]; six days after change to inulin-based diet (10% w/w, sole polysaccharide), 87±3% before switch) was 80±4% and the “change in relative colonization of Bt and B. caccae versus controls” value ([10]; standard diet with inulin in the water (1% w/v), 14 days) was “no statistical difference”. The “change in community composition” value ([11]; after 6 days on inulin-based diet) was “did not exhibit any significant trend” and the Bt abundance ([11]; day 21, inulin enriched diet, 74±3% on day 6, p=0.1, n=3 mice) was 84±5%.
For levan, the doubling time [2] was 2.7 h, the “growth of Bt” value [2] was “grew on” and the “growth of Bt-ΔBT1754” value [3] was “failed to grow”.
